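All cell lines were grown in 96-well plates and treated with compound for 48 hours. Here, GI50 denotes the concentration required for 50% inhibition of growth.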 The source made the active and inactive calls. No stated cut-off is given here; in the data, active = GI50 up to about 1.1 µM and inactive = higher.
Columns and labels:
Assay in all cases: inhibition of tumour cell growth, NCI panel, 48 h
DLD-1 = tested on: DLD-1
XF498 = tested on: XF498
DMS-114 = tested on: DMS-114
DMS-273 = tested on: DMS-273
HOP-18 = tested on: HOP-18
LXFL 529 = tested on: LXFL 529
M19-MEL = tested on: M19-MEL
RXF 631 = tested on: RXF 631
SNB-78 = tested on: SNB-78

SMILES	GI50 (DLD-1)	GI50 (XF498)	GI50 (DMS-114)	GI50 (DMS-273)	GI50 (HOP-18)	GI50 (LXFL 529)	GI50 (M19-MEL)	GI50 (RXF 631)	GI50 (SNB-78)
O=C(Nc1cc(Cl)c(Cl)cc1Cl)C(=O)C(C(=O)c1ccccc1)C1OC(=O)c2ccccc21 (stereo not given)	> 100 µM (inactive)	> 100 µM (inactive)	> 100 µM (inactive)	> 100 µM (inactive)	38.3 µM (inactive)	> 100 µM (inactive)	> 100 µM (inactive)	> 100 µM (inactive)	> 100 µM (inactive)
O=C1c2ccccc2C(=O)C1C(c1ccc(F)cc1)C1C(=O)c2ccccc2C1=O	> 100 µM (inactive)	> 100 µM (inactive)	> 100 µM (inactive)	> 100 µM (inactive)	> 100 µM (inactive)	> 100 µM (inactive)	61 µM (inactive)	> 100 µM (inactive)	> 100 µM (inactive)
CC(=O)OC1CC2C(C)(C)C(=O)C=C[C@]2(C)C2CCC3(C)C(=CCC3[C@H](CO)C[C@H](O)C(=O)C(C)(C)O)[C@]12C (stereo not given in full)	14.9 µM (inactive)		33.9 µM (inactive)	30.9 µM (inactive)	54.1 µM (inactive)	42.4 µM (inactive)	35.8 µM (inactive)	30.5 µM (inactive)	76.4 µM (inactive)
Cc1cc(C)nc(NS(=O)(=O)c2ccc(Nc3c4ccccc4nc4c(C(=O)Nc5ccc(S(=O)(=O)Nc6cc(C)on6)cc5)ccc(Cl)c34)cc2)n1	17.2 µM (inactive)	18.7 µM (inactive)				18.5 µM (inactive)	37.9 µM (inactive)	20.7 µM (inactive)	29.2 µM (inactive)
CCCCCCCCCCCc1cc(=O)c2c(O)cccc2o1	> 100 µM (inactive)	42.8 µM (inactive)	38.7 µM (inactive)	56.6 µM (inactive)	> 100 µM (inactive)	55.1 µM (inactive)	43.8 µM (inactive)	> 100 µM (inactive)	> 100 µM (inactive)
COc1ccc(C=C(c2ccc(OCc3ccccc3)cc2)c2ccc(OCc3ccccc3)cc2)cc1	> 100 µM (inactive)	> 100 µM (inactive)	> 100 µM (inactive)	> 100 µM (inactive)	> 100 µM (inactive)	> 100 µM (inactive)	> 100 µM (inactive)	> 100 µM (inactive)	> 100 µM (inactive)
N#CC1(N2CCCC2)CCC2(CC1)OCCO2			> 100 µM (inactive)	> 10 µM (inactive)			> 10 µM (inactive)		> 100 µM (inactive)
Cc1ccc(NC(=O)NC(=O)c2ccc([N+](=O)[O-])cc2[N+](=O)[O-])cc1Oc1ncc(Cl)cn1	0.421 µM (active)	0.843 µM (active)	0.484 µM (active)	0.318 µM (active)	10.3 µM (inactive)	0.36 µM (active)	0.741 µM (active)		0.346 µM (active)
CCOP(=O)(OCC)C(C(=O)OC)C(=O)C(=O)Nc1ccc(Cl)cc1Cl (stereo not given)	> 100 µM (inactive)	3.78 µM (inactive)	> 100 µM (inactive)	> 100 µM (inactive)	24 µM (inactive)	> 100 µM (inactive)	> 100 µM (inactive)		> 100 µM (inactive)
COc1ccc(C(=O)C=C2NCCN2)cc1	> 100 µM (inactive)		> 100 µM (inactive)	> 100 µM (inactive)	> 100 µM (inactive)	> 100 µM (inactive)	> 100 µM (inactive)		> 100 µM (inactive)
CC(=O)OCC1OC(OC2CC3C(C)(C)C(O)CC[C@]3(C)C3CCC45CC4(CC[C@H]5C(C)CC(O)C4OC4(C)C)[C@]23C)C(O)C(O)C1O (stereo not given in full)	8.09 µM (inactive)	4.13 µM (inactive)	5.21 µM (inactive)	8 µM (inactive)	7.08 µM (inactive)	5.83 µM (inactive)	4.27 µM (inactive)		
COC(=O)C1=C(C(=O)OC)C2(CCCCCC2=O)OC1=O (stereo not given)		> 100 µM (inactive)	> 100 µM (inactive)	> 100 µM (inactive)		> 100 µM (inactive)	> 100 µM (inactive)	> 100 µM (inactive)	> 100 µM (inactive)
CC1=Nn2c(nnc2-c2ccc(N)cc2)NC(C)(C)C1	> 100 µM (inactive)	> 100 µM (inactive)	> 100 µM (inactive)	> 100 µM (inactive)	> 100 µM (inactive)	> 100 µM (inactive)	> 100 µM (inactive)	> 100 µM (inactive)	> 100 µM (inactive)
O=C1CCCCC12CCC/C2=N\O (stereo not given)	> 100 µM (inactive)		> 100 µM (inactive)	> 100 µM (inactive)	> 100 µM (inactive)	> 100 µM (inactive)	> 100 µM (inactive)	> 100 µM (inactive)	> 100 µM (inactive)
COc1ccc(Nc2nc3cc(C(F)(F)F)ccc3nc2-c2ccccc2)cc1OC	21.4 µM (inactive)	1.71 µM (inactive)	10.3 µM (inactive)	6.08 µM (inactive)	< 0.01 µM (active)	49 µM (inactive)			25.4 µM (inactive)
NC(CCCNCc1ccccc1)C(=O)O (stereo not given)	> 100 µM (inactive)		> 100 µM (inactive)	> 100 µM (inactive)	> 100 µM (inactive)	> 100 µM (inactive)	> 100 µM (inactive)	> 100 µM (inactive)	
CCOC1=C2N=C(Cc3ccccc3F)N=C2C(=O)c2ccccc21	> 100 µM (inactive)	> 100 µM (inactive)	> 100 µM (inactive)	> 100 µM (inactive)	> 100 µM (inactive)	> 100 µM (inactive)	> 100 µM (inactive)		
C=CCOC(C)n1c(C)c(Br)c(=O)[nH]c1=O (stereo not given)	> 100 µM (inactive)	> 100 µM (inactive)	> 100 µM (inactive)	> 100 µM (inactive)		> 100 µM (inactive)	> 100 µM (inactive)		
N#C/C(=C\c1cc(O)ccc1O)C(N)=O	70.6 µM (inactive)	65.3 µM (inactive)	24.8 µM (inactive)	47.3 µM (inactive)		35.6 µM (inactive)	51.3 µM (inactive)	58.1 µM (inactive)	25.6 µM (inactive)
COC12OCCN(C)C1=CC(=O)C1=NNC(C)C12 (stereo not given)	> 100 µM (inactive)		> 100 µM (inactive)	> 100 µM (inactive)	> 100 µM (inactive)	> 100 µM (inactive)	> 100 µM (inactive)	> 100 µM (inactive)	> 100 µM (inactive)
O=C(O)CCNCCCCNCCC(=O)O	> 100 µM (inactive)	> 100 µM (inactive)		> 100 µM (inactive)	> 100 µM (inactive)	> 100 µM (inactive)			
Clc1ccc(C2SCc3nc4ccccc4n32)c(Cl)c1 (stereo not given)	15.7 µM (inactive)	19.1 µM (inactive)	8.3 µM (inactive)		19.5 µM (inactive)	11.9 µM (inactive)	14.8 µM (inactive)		
O=C(O)c1cc(S(=O)(=O)N/N=C\c2c3ccccc3[n+]([O-])c3ccccc23)ccc1O	16.7 µM (inactive)		12.7 µM (inactive)	7.16 µM (inactive)	11.7 µM (inactive)	12.2 µM (inactive)	13.3 µM (inactive)		20.6 µM (inactive)
CCc1ccc(Cc2ccc(CC)c(NC(=O)C(=O)Cc3nc4ccccc4nc3C)c2CC)c(CC)c1NC(=O)C(=O)Cc1nc2ccccc2nc1C	> 100 µM (inactive)		47.5 µM (inactive)			54.1 µM (inactive)	> 100 µM (inactive)	84.9 µM (inactive)	76.2 µM (inactive)
CCCCCCCCCCn1cccc1/C=C/c1ccc(/C=C/c2cccn2CCCCCCCCCC)cc1	> 100 µM (inactive)	> 100 µM (inactive)	> 100 µM (inactive)	> 100 µM (inactive)	> 100 µM (inactive)	> 100 µM (inactive)	> 100 µM (inactive)		> 100 µM (inactive)
CN(C)/N=N/c1c[nH]nc1C(N)=O	> 100 µM (inactive)	> 100 µM (inactive)	> 100 µM (inactive)	> 100 µM (inactive)	> 100 µM (inactive)	> 100 µM (inactive)	> 100 µM (inactive)		
CCOC(=O)C(Cc1ccccc1)NC(=O)c1nc[nH]c1/N=N/N(C)C (stereo not given)	> 100 µM (inactive)		> 100 µM (inactive)	> 100 µM (inactive)		> 100 µM (inactive)	> 100 µM (inactive)		

From ChEMBL document CHEMBL1201862, “PubChem BioAssay data set” (2004)
